Laboratory results as given in patent US7772241B2, “Variolin derivatives and their use as antitumor agents” (Pharma Mar S.A., priority 2001, dated 2010).

Legend:
[1] = tested on: HT-29; assay: Inhibition of cells growth by colorimetric (SRB) assay, HT-29; settings: for GI50 / CC50: Homo sapiens, HT-29, 48 h; for GI50: read-out: GI50 HT-29, SRB assay, 48 hours exposure; for CC50: read-out: LC50 HT-29, SRB assay, 48 hours exposure; for TGI HT-29: SRB assay, 48 hours exposure
Description: (§1) The finality of these assays is to interrupt the growth of a “in vitro” tumor cell culture by means a continued exhibition of the cells to the sample to be testing.
(§2) This form of the assay employs 96 well cell culture microplates of 9 mm diameter (Faircloth, 1988; Mosmann, 1983). Most of the cell lines are obtained from American Type Culture Collection (ATCC) derived from different human cancer types.
(§3) Cells are maintained in RPMI 1640 10% FBS, supplemented with 0.1 g/l penicillin and 0.1 g/l streptomycin sulphate and then incubated at 37° C., 5% CO2 and 98% humidity. For the experiments, cells were harvested from subconfluent cultures using trypsin and resuspended in fresh medium before plating.
(§4) Cells are seeded in 96 well microtiter plates, at 5×10^3 cells per well in aliquots of 195 μl medium, and they are allowed to attach to the plate surface by growing in drug free medium for 18 hours. Afterward, samples are added in aliquots of 5 μl in a ranging from 10 to 10^−8 μg/ml, dissolved in DMSO/EtOH/PBS (0.5:0.5:99). After 48 hours exposure, the antitumor effect are measured by the SRB methodology: cells are fixed by adding 50 μl of cold 50% (wt/vol) trichloroacetic acid (TCA) and incubating for 60 minutes at 4° C. Plates are washed with deionized water and dried. One hundred μl of SRB solution (0.4% wt/vol in 1% acetic acid) is added to each microtiter well and incubated for 10 minutes at room temperature. Unbound SRB is removed by washing with 1% acetic acid. Plates are air dried and bound stain is solubilized with Tris buffer. Optical densities are read on a automated spectrophotometric plate reader at a single wavelength of 490 nm.
(§5) The values for mean +/−SD of data from triplicate wells are calculated. Some parameters for cellular responses can be calculated: GI=growth inhibition, TGI=total growth inhibition (cytostatic effect) and LC=cell killing (cytotoxic effect).

[2] = tested on: LoVo; assay: Inhibition of cells growth by colorimetric (SRB) assay, LoVo; settings: for GI50 / CC50: Homo sapiens, LoVo, 48 h; for GI50: read-out: GI50 LOVO, SRB assay, 48 hours exposure; for CC50: read-out: LC50 LOVO, SRB assay, 48 hours exposure; for TGI LOVO: SRB assay, 48 hours exposure
Description: as §1, §2, §3, §4, §5

[3] = tested on: LoVo-Dox; assay: Inhibition of cells growth by colorimetric (SRB) assay, LoVo-Dox; settings: for GI50 / CC50: Homo sapiens, 48 h; for GI50: read-out: GI50 LOVO-DOX, SRB assay, 48 hours exposure; for CC50: read-out: LC50 LOVO-DOX, SRB assay, 48 hours exposure; for TGI LOVO-DOX: SRB assay, 48 hours exposure
Description: as §1, §2, §3, §4, §5

[4] = tested on: A-549; assay: Inhibition of cells growth by colorimetric (SRB) assay, A-549; settings: for GI50 / CC50: Homo sapiens, A549, 48 h; for GI50: read-out: GI50 A-549, SRB assay, 48 hours exposure; for CC50: read-out: LC50 A-549, SRB assay, 48 hours exposure; for TGI A-549: SRB assay, 48 hours exposure
Description: as §1, §2, §3, §4, §5

[5] = tested on: SK-OV-3; assay: Inhibition of cells growth by colorimetric (SRB) assay, SK-OV-3; settings: for GI50 / CC50: Homo sapiens, SK-OV-3, 48 h; for GI50: read-out: GI50 SKOV-3, SRB assay, 48 hours exposure; for CC50: read-out: LC50 SKOV-3, SRB assay, 48 hours exposure; for TGI SKOV-3: SRB assay, 48 hours exposure
Description: as §1, §2, §3, §4, §5

[6] = tested on: IGROV-ET; assay: Inhibition of cells growth by colorimetric (SRB) assay, IGROV-ET; settings: for GI50 / CC50: Homo sapiens, 48 h; for GI50: read-out: GI50 IGROV-ET, SRB assay, 48 hours exposure; for CC50: read-out: LC50 IGROV-ET, SRB assay, 48 hours exposure; for TGI IGROV-ET: SRB assay, 48 hours exposure
Description: as §1, §2, §3, §4, §5

[7] = tested on: DU-145; assay: Inhibition of cells growth by colorimetric (SRB) assay, DU-145; settings: for GI50 / CC50: Homo sapiens, DU-145, 48 h; for GI50: read-out: GI50 DU-145, SRB assay, 48 hours exposure; for CC50: read-out: LC50 DU-145, SRB assay, 48 hours exposure; for TGI DU-145: SRB assay, 48 hours exposure
Description: as §1, §2, §3, §4, §5

[8] = tested on: SK-MEL-28; assay: Inhibition of cells growth by colorimetric (SRB) assay, SK-MEL-28; settings: for GI50 / CC50: Homo sapiens, SK-MEL-28, 48 h; for GI50: read-out: GI50 MEL-28, SRB assay, 48 hours exposure; for CC50: read-out: LC50 MEL-28, SRB assay, 48 hours exposure; for TGI MEL-28: SRB assay, 48 hours exposure
Description: as §1, §2, §3, §4, §5

[9] = tested on: PANC-1; assay: Inhibition of cells growth by colorimetric (SRB) assay, PANC-1; settings: for GI50 / CC50: Homo sapiens, PANC-1, 48 h; for GI50: read-out: GI50 PANC-1, SRB assay, 48 hours exposure; for CC50: read-out: LC50 PANC-1, SRB assay, 48 hours exposure; for TGI PANC-1: SRB assay, 48 hours exposure
Description: as §1, §2, §3, §4, §5

[10] = tested on: IGROV-1; assay: Inhibition of cells growth by colorimetric (SRB) assay, IGROV-1; settings: for GI50 / CC50: Homo sapiens, IGROV-1, 48 h; for GI50: read-out: GI50 IGROV, SRB assay, 48 hours exposure; for CC50: read-out: LC50 IGROV, SRB assay, 48 hours exposure; for TGI IGROV: SRB assay, 48 hours exposure
Description: as §1, §2, §3, §4, §5

[11] = tested on: LNCaP; assay: Inhibition of cells growth by colorimetric (SRB) assay, LNCaP; settings: for GI50 / CC50: Homo sapiens, LNCaP, 48 h; for GI50: read-out: GI50 LN-caP, SRB assay, 48 hours exposure; for CC50: read-out: LC50 LN-caP, SRB assay, 48 hours exposure; for TGI LN-caP: SRB assay, 48 hours exposure
Description: as §1, §2, §3, §4, §5

[12] = tested on: K-562; assay: Inhibition of cells growth by colorimetric (SRB) assay, K-562; settings: for GI50 / CC50: Homo sapiens, K562, 48 h; for GI50: read-out: GI50 K-562, SRB assay, 48 hours exposure; for CC50: read-out: LC50 K-562, SRB assay, 48 hours exposure; for TGI K-562: SRB assay, 48 hours exposure
Description: as §1, §2, §3, §4, §5

`CC(C)c1c2cccnc2n2c(N)nccc12` [Compound 66] was tested, and the GI50 [1] was 17.9 µM, the CC50 [1] was ≥ 44.2 µM and the “TGI HT-29” value [1] was 4.42E−05. For the same compound, the GI50 [2] was 17.1 µM, the CC50 [2] was ≥ 44.2 µM and the “TGI LOVO” value [2] was 4.42E−05. The GI50 [3] was 2.22 µM, the CC50 [3] was ≥ 44.2 µM and the “TGI LOVO-DOX” value [3] was 4.42E−05. The GI50 [4] was 16.1 µM, the CC50 [4] was ≥ 44.2 µM and the “TGI A-549” value [4] was 4.42E−05. The GI50 [5] was 15.7 µM, the CC50 [5] was ≥ 44.2 µM and the “TGI SKOV-3” value [5] was 3.04E−05. The GI50 [6] was 9.81 µM, the CC50 [6] was 39.8 µM and the “TGI IGROV-ET” value [6] was 1.98E−05. For the same compound, the GI50 [7] was 10 µM, the CC50 [7] was ≥ 44.2 µM and the “TGI DU-145” value [7] was 2.59E−05. The GI50 [8] was 8.84 µM, the CC50 [8] was 39.6 µM and the “TGI MEL-28” value [8] was 1.87E−05. The GI50 [9] was 8 µM, the CC50 [9] was ≥ 44.2 µM and the “TGI PANC-1” value [9] was 2.16E−05. The GI50 [10] was 9.99 µM, the CC50 [10] was 30.4 µM and the “TGI IGROV” value [10] was 1.74E−05. The GI50 [11] was 12.5 µM, the CC50 [11] was ≥ 44.2 µM and the “TGI LN-caP” value [11] was 2.55E−05. For the same compound, the GI50 [12] was 21.6 µM, the CC50 [12] was ≥ 44.2 µM and the “TGI K-562” value [12] was 4.42E−05.
With `Cl.Nc1nccc2c(-c3ccncn3)c3cccnc3n12` [Compound 71] the GI50 [1] was 1.1 µM, the CC50 [1] was 33.5 µM and the “TGI HT-29” value [1] was 3.35E−06. For the same compound, the GI50 [2] was 0.318 µM, the CC50 [2] was 33.5 µM and the “TGI LOVO” value [2] was 1.84E−06. The GI50 [3] was 0.465 µM, the CC50 [3] was 33.5 µM and the “TGI LOVO-DOX” value [3] was 1.79E−06. For the same compound, the GI50 [4] was 1.1 µM, the CC50 [4] was 11.2 µM and the “TGI A-549” value [4] was 2.70E−06. For the same compound, the GI50 [5] was 1.06 µM, the CC50 [5] was 33.5 µM and the “TGI SKOV-3” value [5] was 3.00E−06. For the same compound, the GI50 [6] was 1.04 µM, the CC50 [6] was 31.9 µM and the “TGI IGROV-ET” value [6] was 2.75E−06. For the same compound, the GI50 [7] was 0.75 µM, the CC50 [7] was 33.5 µM and the “TGI DU-145” value [7] was 2.31E−06. The GI50 [8] was 0.556 µM, the CC50 [8] was 2.5 µM and the “TGI MEL-28” value [8] was 1.18E−06. The GI50 [9] was 1.07 µM, the CC50 [9] was 33.5 µM and the “TGI PANC-1” value [9] was 3.78E−06. The GI50 [10] was 0.797 µM, the CC50 [10] was 4.15 µM and the “TGI IGROV” value [10] was 1.65E−06. The GI50 [11] was 0.0502 µM, the CC50 [11] was 1.82 µM and the “TGI LN-caP” value [11] was 2.15E−07. The GI50 [12] was 1.7 µM, the CC50 [12] was 33.5 µM and the “TGI K-562” value [12] was 1.30E−05.
`Nc1nccc2c(-c3ccnc(O)n3)c3cccnc3n12` [Compound 80] was tested, and the GI50 [1] was 2.45 µM, the CC50 [1] was 35.9 µM and the “TGI HT-29” value [1] was 3.59E−05. The GI50 [2] was 4.06 µM, the CC50 [2] was 35.9 µM and the “TGI LOVO” value [2] was 1.48E−05. The GI50 [3] was 4.2 µM, the CC50 [3] was 35.9 µM and the “TGI LOVO-DOX” value [3] was 2.01E−05. For the same compound, the GI50 [4] was 7.73 µM, the CC50 [4] was 32.7 µM and the “TGI A-549” value [4] was 1.59E−05. For the same compound, the GI50 [5] was 12.5 µM, the CC50 [5] was 35.9 µM and the “TGI SKOV-3” value [5] was 3.45E−05. For the same compound, the GI50 [6] was 2.48 µM, the CC50 [6] was 35.9 µM and the “TGI IGROV-ET” value [6] was 9.45E−06. The GI50 [7] was 1.81 µM, the CC50 [7] was 35.9 µM and the “TGI DU-145” value [7] was 8.70E−06. For the same compound, the GI50 [8] was 2.42 µM, the CC50 [8] was 19.7 µM and the “TGI MEL-28” value [8] was 7.08E−06. The GI50 [9] was 8.41 µM, the CC50 [9] was 35.9 µM and the “TGI PANC-1” value [9] was 2.42E−05. For the same compound, the GI50 [10] was 1.55 µM, the CC50 [10] was 24.8 µM and the “TGI IGROV” value [10] was 3.26E−06. The GI50 [11] was 0.97 µM, the CC50 [11] was 2.79 µM and the “TGI LN-caP” value [11] was 1.65E−06. The GI50 [12] was 9.88 µM, the CC50 [12] was 35.9 µM and the “TGI K-562” value [12] was 3.59E−05.
